{
  "source": "patent US20030100598A1",
  "about": "“Novel esters derived from (rr,ss)-2-hydroxybenzoate of 3-(2-dimethylaminomethyl-1-hydroxycyclohexyl)phenyl” (priority 1999, published 2003)",
  "key": {"[1]": {"tested_on": "Male Swiss mice", "test": "Hot plate method, analgesic activity in mice", "format": "in vivo", "conditions": "for % response time increase: hot plate, 15 mg/kg, intraperitoneal adm., n = 20; for % response time increase on hot plate: 20 μmol/kg, oral adm., n = 20-40", "description": "The method that was used is described by Eddy N. B. and Leimbach D. (J. Pharm. Exp. Ther. 107: 385-393, 1953). The analgesic effect of the products was evaluated analysing the behaviour of the animals on a hot surface at 55° C.±1° C.\nMale Swiss mice weighing 20-25 g were used. The compounds being tested were administered orally or intraperitoneally 1 hour ∘ 30 minutes before starting the test, respectively.\nThe process consisted of placing the animals on the plate and keeping them in a Plexiglas cylinder 25 cm high and 21 cm […]. The time the animals took to jump off the hot surface was determined. The animals were selected before starting the test so that those that took longer than 10 seconds to jump off were not included in the group that would receive treatment.\n30 minutes after administering the product being tested, the test was repeated and the maximum time it took the animals to jump off was again recorded.\nThe results are expressed as the % of jump time increase calculated as follows: [formula]\nIn order to determine the duration of the analgesic effect of the orally administered products, the analgesic activity was evaluated on the hot plate 1, 3, 6, 8, and 24 hours after the administration of the product, as well as the control group which received treatment only with the vehicle. The base responses were evaluated at 30 and 5 minutes prior to administering the products."}, "[2]": {"tested_on": "Male Swiss mice", "test": "Determination of the DL50 (acute single dose oral toxicity)", "format": "in vivo", "conditions": "oral adm., 14 days observation", "description": "(EUDRA/S/87/011, Single Dose Toxicity, European Directive 75/318/EEC) (ICH S4, Toxicity Studies, single dose and repeated dose, CPMP vol III February 87, Single dose toxicity)\nMale Swiss mice of the same batch weighing 20-25 g are used in order to estimate the acute toxicity of the products.\nPrior to administering the products, the animals were forced to fast for 12 hours with no intake of food but free access to water. Several subgroups of 10 animals were randomly selected and orally given increasing doses of the products in single administration, after which they remained under observation for a period of 14 days with free access to water and food. Finally, the number of dead animals of each subgroup was quantified and the value of the DL50 was calculated (1-2)."}},
  "data": [
    {"smiles": "CN(C)CC1CCCCC1(O)c1cccc(OC(=O)c2ccccc2OC(=O)N(C)C)c1", "note": "(stereo not drawn) [EXAMPLE 8, 3-(2-dimethylaminomethyl-1-hydroxy-cyclohexyl)-phenyl (RR—SS)-2-dimethylcarbamoyloxy-benzoate]", "values": [
      {"measurement": "% response time increase", "setting": "[1]", "value": "327 ± 65", "unit": "%"}
    ]},
    {"smiles": "CC(C)Cc1ccc(C(C)C(=O)Oc2cccc(C3=C(CN(C)C)CCCC3)c2)cc1", "note": "(stereo not drawn) [EXAMPLE 4, 3-(2-dimethylaminomethyl-cyclohex-1-enyl)-phenyl 2-(4-isobutyl-phenyl)-propionate]", "values": [
      {"measurement": "% response time increase", "setting": "[1]", "value": "333 ± 134", "unit": "%"}
    ]},
    {"smiles": "CC(C)Cc1ccc(C(C)C(=O)Oc2cccc(C3(O)CCCCC3CN(C)C)c2)cc1", "note": "(stereo not drawn) [EXAMPLE 1, 3-(2-dimethylaminomethyl-1-hydroxy-cyclohexyl)-phenyl 2-(4-isobutyl-phenyl)-propionate]", "values": [
      {"measurement": "DL50 approx.", "setting": "[2]", "value": "~900", "unit": "mg/kg"},
      {"measurement": "% response time increase on hot plate", "setting": "[1]", "value": "210 ± 88", "unit": "%"},
      {"measurement": "% response time increase", "setting": "[1]", "value": "568 ± 100", "unit": "%"}
    ]},
    {"smiles": "CN(C)CC1=C(c2cccc(OC(=O)c3ccccc3O)c2)CCCC1", "note": "[EXAMPLE 7, 3-(2-dimethylaminomethyl-cyclohex-1-enyl)-phenyl 2-hydroxybenzoate]", "values": [
      {"measurement": "% response time increase", "setting": "[1]", "value": "634 ± 42", "unit": "%"}
    ]},
    {"smiles": "COc1ccc2cc(C(C)C(=O)Oc3cccc(C4=C(CN(C)C)CCCC4)c3)ccc2c1", "note": "(stereo not drawn) [EXAMPLE 5, 3-(2-dimethylaminomethyl-cyclohex-1-enyl)-phenyl 2-(6-methoxy-naphthalen-2-yl)-propionate]", "values": [
      {"measurement": "% response time increase", "setting": "[1]", "value": "356 ± 151", "unit": "%"}
    ]},
    {"smiles": "CN(C)CC1CCCCC1(O)c1cccc(OC(=O)C2CCn3c(C(=O)c4ccccc4)ccc32)c1", "note": "(stereo not drawn) [EXAMPLE 3, 3-(2-dimethylaminomethyl-1-hydroxy-cyclohexyl)-phenyl 5-benzoyl-2,3-dihydro-1H-pyrrolizine-1-carboxylate]", "values": [
      {"measurement": "% response time increase", "setting": "[1]", "value": "416 ± 146", "unit": "%"}
    ]},
    {"smiles": "CN(C)CC1CCCCC1(O)c1cccc(OC(=O)c2ccccc2O)c1", "note": "(stereo not drawn) [EXAMPLE 6, 3-(2-dimethylaminomethyl-1-hydroxy-cyclohexyl)-phenyl (RR-SS)-2-hydroxybenzoate]", "values": [
      {"measurement": "DL50 approx.", "setting": "[2]", "value": "~550", "unit": "mg/kg"},
      {"measurement": "% response time increase on hot plate", "setting": "[1]", "value": "248 ± 72", "unit": "%"},
      {"measurement": "% response time increase", "setting": "[1]", "value": "546 ± 63", "unit": "%"}
    ]},
    {"smiles": "COc1ccc2cc(C(C)C(=O)Oc3cccc(C4(O)CCCCC4CN(C)C)c3)ccc2c1", "note": "(stereo not drawn) [EXAMPLE 2, 3-(2-dim-ethylaminomethyl-1-hydroxy-cyclohexyl)-phenyl 2-(6-methoxy-naphthalen-2-yl)-propionate]", "values": [
      {"measurement": "% response time increase", "setting": "[1]", "value": "539 ± 50", "unit": "%"}
    ]},
    {"smiles": "COc1cccc(C2(O)CCCCC2CN(C)C)c1", "note": "(single isomer, unassigned) [Tramadol, (1R, 2R or 1S, 2S)-2-[(dimethylamino)methyl]-1-(3-methoxyphenyl) cyclohexano, reference compound]", "values": [
      {"measurement": "DL50 approx.", "setting": "[2]", "value": "~350", "unit": "mg/kg"},
      {"measurement": "% response time increase on hot plate", "setting": "[1]", "value": "87 ± 23", "unit": "%"},
      {"measurement": "% response time increase", "setting": "[1]", "value": "218 ± 98", "unit": "%"}
    ]}
  ]
}
